Data reported in patent US20200024278A1, “COMPOSITION COMPRISING ANTIBIOTIC COMPOUND AND AN HETEROCYCLIC COMPOUND AND THEIR USE IN PREVENTING OR TREATING BACTERIAL INFECTIONS” (MUTABILIS, priority 2016, published 2020).

Assays:
Test in all cases: MIC, broth microdilution (CLSI), substance alone or ATB combined with compound at 4 or 8 μg/mL
Type in all cases: cell-based, A. baumannii
[1] = test system: ABA UFR156
How it was run: (§1)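 CLSI broth microdilution in cation-adjusted Mueller-Hinton broth, 5·10^5 CFU/mL log-phase inoculum, 16-20 h at 35 °C in ambient air. Fosfomycin assays supplemented with 25 μg/ml glucose-6-phosphate.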

[2] = test system: ABA UFR157
How it was run: as §1

[3] = test system: ABA UFR158
How it was run: as §1

[4] = test system: ABA UFR159
How it was run: as §1

[5] = test system: ABA UFR160
How it was run: as §1

[6] = test system: ABA UFR161
How it was run: as §1

[7] = Acinetobacter baumannii, antibiotic alone, read-out: MIC ATB alone

## CO/N=C(\C(=O)N[C@@H]1C(=O)N2C(C(=O)[O-])=C(C[N+]3(C)CCCC3)CS[C@H]12)c1csc(N)n1 [FEP, Cefepime]
[1]; with Example 9 @4 μg/ml
  MIC ATB combined with Example 9 @4 μg/ml: 32 µg/mL
[1]; with Example 10 @8 μg/ml
  MIC ATB combined with Example 10 @8 μg/ml: 8 µg/mL
[1]; with Example 11 @8 μg/ml
  MIC ATB combined with Example 11 @8 μg/ml: 32 µg/mL
[1]; with Example 12 @8 μg/ml
  MIC ATB combined with Example 12 @8 μg/ml: 32 µg/mL
[1]; with Example 15 @4 μg/ml
  MIC ATB combined with Example 15 @4 μg/ml: 32 µg/mL
[2]; [7]
  MIC: 32 µg/mL
[2]; with Example 1 @8 μg/ml
  MIC ATB combined with Example 1 @8 μg/ml: 8 µg/mL
[2]; with Example 3 @8 μg/ml
  MIC ATB combined with Example 3 @8 μg/ml: 4 µg/mL
[2]; with Example 6 @8 μg/ml
  MIC ATB combined with Example 6 @8 μg/ml: <0.25 µg/mL
[2]; with Example 9 @4 μg/ml
  MIC ATB combined with Example 9 @4 μg/ml: 8 µg/mL
[2]; with Example 10 @8 μg/ml
  MIC ATB combined with Example 10 @8 μg/ml: 8 µg/mL
[2]; with Example 11 @8 μg/ml
  MIC ATB combined with Example 11 @8 μg/ml: 8 µg/mL
[2]; with Example 12 @8 μg/ml
  MIC ATB combined with Example 12 @8 μg/ml: 4 µg/mL
[2]; with Example 15 @4 μg/ml
  MIC ATB combined with Example 15 @4 μg/ml: 8 µg/mL
[3]; [7]
  MIC: > 128 µg/mL
[3]; with Example 1 @8 μg/ml
  MIC ATB combined with Example 1 @8 μg/ml: >128 µg/mL
[3]; with Example 3 @8 μg/ml
  MIC ATB combined with Example 3 @8 μg/ml: >128 µg/mL
[3]; with Example 6 @8 μg/ml
  MIC ATB combined with Example 6 @8 μg/ml: <0.25 µg/mL
[3]; with Example 9 @4 μg/ml
  MIC ATB combined with Example 9 @4 μg/ml: >128 µg/mL
[3]; with Example 10 @8 μg/ml
  MIC ATB combined with Example 10 @8 μg/ml: >128 µg/mL
[3]; with Example 11 @8 μg/ml
  MIC ATB combined with Example 11 @8 μg/ml: >128 µg/mL
[3]; with Example 12 @8 μg/ml
  MIC ATB combined with Example 12 @8 μg/ml: >128 µg/mL
[3]; with Example 15 @4 μg/ml
  MIC ATB combined with Example 15 @4 μg/ml: >128 µg/mL
[4]; [7]
  MIC: > 128 µg/mL
[4]; with Example 1 @8 μg/ml
  MIC ATB combined with Example 1 @8 μg/ml: >128 µg/mL
[4]; with Example 3 @8 μg/ml
  MIC ATB combined with Example 3 @8 μg/ml: >128 µg/mL
[4]; with Example 6 @8 μg/ml
  MIC ATB combined with Example 6 @8 μg/ml: >128 µg/mL
[4]; with Example 9 @4 μg/ml
  MIC ATB combined with Example 9 @4 μg/ml: >128 µg/mL
[4]; with Example 10 @8 μg/ml
  MIC ATB combined with Example 10 @8 μg/ml: >128 µg/mL
[4]; with Example 11 @8 μg/ml
  MIC ATB combined with Example 11 @8 μg/ml: >128 µg/mL
[4]; with Example 12 @8 μg/ml
  MIC ATB combined with Example 12 @8 μg/ml: >128 µg/mL
[4]; with Example 15 @4 μg/ml
  MIC ATB combined with Example 15 @4 μg/ml: >128 µg/mL
[5]; [7]
  MIC: > 128 µg/mL
[5]; with Example 1 @8 μg/ml
  MIC ATB combined with Example 1 @8 μg/ml: >128 µg/mL
[5]; with Example 3 @8 μg/ml
  MIC ATB combined with Example 3 @8 μg/ml: >128 µg/mL
[5]; with Example 6 @8 μg/ml
  MIC ATB combined with Example 6 @8 μg/ml: <0.25 µg/mL
[5]; with Example 9 @4 μg/ml
  MIC ATB combined with Example 9 @4 μg/ml: >128 µg/mL
[5]; with Example 10 @8 μg/ml
  MIC ATB combined with Example 10 @8 μg/ml: >128 µg/mL
[5]; with Example 11 @8 μg/ml
  MIC ATB combined with Example 11 @8 μg/ml: >128 µg/mL
[5]; with Example 12 @8 μg/ml
  MIC ATB combined with Example 12 @8 μg/ml: >128 µg/mL
[5]; with Example 15 @4 μg/ml
  MIC ATB combined with Example 15 @4 μg/ml: >128 µg/mL
[6]; [7]
  MIC: > 128 µg/mL
[6]; with Example 1 @8 μg/ml
  MIC ATB combined with Example 1 @8 μg/ml: >128 µg/mL
[6]; with Example 3 @8 μg/ml
  MIC ATB combined with Example 3 @8 μg/ml: >128 µg/mL
[6]; with Example 6 @8 μg/ml
  MIC ATB combined with Example 6 @8 μg/ml: >128 µg/mL
[6]; with Example 9 @4 μg/ml
  MIC ATB combined with Example 9 @4 μg/ml: >128 µg/mL
[6]; with Example 10 @8 μg/ml
  MIC ATB combined with Example 10 @8 μg/ml: >128 µg/mL
[6]; with Example 11 @8 μg/ml
  MIC ATB combined with Example 11 @8 μg/ml: >128 µg/mL
[6]; with Example 12 @8 μg/ml
  MIC ATB combined with Example 12 @8 μg/ml: >128 µg/mL
[6]; with Example 15 @4 μg/ml
  MIC ATB combined with Example 15 @4 μg/ml: >128 µg/mL
